From patent US20120258975A1, “Potent Small Molecule Inhibitors of Autophagy, and Methods of Use Thereof” (Shanghai Institute of Organic Chemistry, priority 2009, published 2012)
“Also recorded” adds a separate entry of the source.

Legend:
PDE5 = PDE5 (Homo sapiens, UniProt O76074); assay: Determination of % inhibition of PDE5 activity; assay type: biochemical
Vps34 complexes = assay: Levels of transfected Vps34 complex proteins in 293T cells (western blot); assay type: cell-based; details: for levels of GFP-p150 and Atg14L: 10 μM, 4 h; for levels of flag-tagged Beclin1 and HA-Vps34: 12 h
bax/bak DKO MEF cells = assay: Etoposide induced cell death of bax/bak DKO cells; assay type: cell-based, mouse; details: MBCQ 10 μM; for cell death induced by etoposide: etoposide 8 μM, spautin 10 μM, 3-MA 10 mM, 8 h
Method: C, cells were collected for western blotting using anti-LC3 antibody. α-tubulin was used as a control. D-F, Bax/bak DKO cells were treated with spautin (10 μM) or indicated concentration, in the presence of or absent etoposide (8 μM) for 8 h or indicated time. […] F, Cells were collected for western blotting using anti-LC3 antibody. α-tubulin was used as a control.
Autophagy has been proposed to contribute to cell death in a number of apoptotic deficient cell types. For example, bax/bak double deficient mouse embryonic fibroblast cells (DKO mefs) are highly resistant to apoptosis (Wei, M. C., Zong, W. X., Cheng, E. H., Lindsten, T., Panoutsakopoulou, V., Ross, A. J., Roth, K. A., MacGregor, G. R., Thompson, C. B., and Korsmeyer, S. J. (2001). Proapoptotic BAX and BAK: a requisite gateway to mitochondrial dysfunction and death. Science 292, 727-730).

LC3II in liver = assay: Autophagy in liver of rapamycin injected mice; assay type: in vivo; details: rapamycin 10 mg/kg, 40 mg/kg intraperitoneally every hour for 4 h
Method: FIG. 13 depicts results showing the effect of MBCQ and derivatives in vivo. (A) Mice were injected with rapamycin (10 mg/kg) alone as a positive control, or with C43 or MBCQ (40 mg/kg) intraperitoneally every hour for 4 h and then sacrificed at 5 th h. The autophagy levels in liver were analyzed by western blotting using anti-LC3 antibody. (B) C43 reduces the levels of autophagy induced by cerulein. Rats were injected intraperitoneally with cerulein (50 μg/kg) alone or with C43 (40 mg/kg) hourly for 4 times. The rats were sacrificed at one h after the last injection and the pancreas were isolated for western blotting analysis using anti-LC3 and anti-tubulin (as a control).
To begin to test the effect of MBCQ derivatives in vivo, the ability of MBCQ derivatives to inhibit autophagy in rapamycin injected mice was investigated. Mice were injected with rapamycin (10 mg/kg) alone as a positive control, or with C43 or MBCQ (40 mg/kg) intraperitoneally every hour for 4 h and then sacrificed at the fifth hour. The autophagy levels in liver were then analyzed by western blotting using anti-LC3 antibody. […] Thus, it was determined that C43 and MBCQ are both active in vivo in inhibiting autophagy.

PtdIns3P = assay: Lipid dot blot assay for cellular PtdIns3P; assay type: cell-based, mouse; details: 10 μM, 3 h; basal and rapamycin treated cells
Method: FIG. 9 depicts results showing that MBCQ and C43 (spautin) selectively reduce the cellular levels of PtdIns3P. MEF cells were treated with DMSO (0.1%), RAPA (0.2 μM) alone, A, MBCQ (10 μM) or B, C43 (spautin) (10 μM) with or without RAPA (0.2 μM) for 3 h. The cellular PtdIns species were extracted and applied onto polyvinylidene fluoride membrane. The levels of PtdIns3P were detected using GST-PX domain protein and anti-GST antibody.
To further determine the effect of MBCQ on the cellular levels of PtdIns3P, a lipid dot blot assay was used. The cellular PtdIns species were extracted and applied onto polyvinylidene fluoride membrane. The levels of PtdIns3P was detected using GST-PX domain protein and anti-GST antibody. […] Taken together, it was concluded that MBCQ reduces the levels of PtdIns3P.

Row | Structure (SMILES) | % Inhibition of PDE5 activity, Average (PDE5; Concentration = 0.2 μM) [%] | % Inhibition of PDE5 activity, Average (PDE5; Concentration = 2 μM) [%] | % Inhibition of PDE5 activity, Average (PDE5; Concentration = 20 μM) [%] | levels of GFP-p150 and Atg14L (Vps34 complexes) | levels of flag-tagged Beclin1 and HA-Vps34 (Vps34 complexes) | levels of LC3II in etoposide treated cells (bax/bak DKO MEF cells) | cell death induced by etoposide (bax/bak DKO MEF cells) | levels of LC3II in liver (LC3II in liver) | cellular levels of PtdIns3P (PtdIns3P) | inhibiting activity towards PDE5 and other PDEs (PDE5; compared with MBCQ) | degradation of GFP-Beclin1, pathway (Vps34 complexes; with MG132 or NH4Cl)
1 | Clc1ccc2ncnc(NCc3ccc4c(c3)OCO4)c2c1 [MBCQ] | 54.4 | 91.0 | 98.8 | reduced the levels | considerably lower | reduced in the presence of MBCQ | significantly reduced cell death; also recorded: inhibits etoposide induced death | significantly reduced the levels of LC3II | selectively reduced the cellular levels of PtdIns3P |  | 
2 | Fc1ccc(CNc2ncnc3ccc(F)cc23)cc1 [C43, 6-fluoro-N-(4-fluorobenzyl)quinazolin-4-amine] |  |  |  | reduced the levels | considerably lower |  | inhibits etoposide induced death | significantly reduced the levels of LC3II | selectively reduced the cellular levels of PtdIns3P | much reduced inhibiting activity | promotes the degradation of Beclin1 through the proteasomal pathway
